# According to PMC5766898, “Eel Kisspeptins: Identification, Functional Activity, and Inhibition on both Pituitary LH and GnRH Receptor Expression” (Frontiers in Endocrinology, 2018):
# Entries after “also recorded” stand apart in the source; their conditions may differ. Read-outs that look alike come from different tables or passages of the source. Ends that are not written are not given here.
# Assays:
# human KissR-1 [1] = tested on: human KissR-1; set-up: method as in PMID 26047834; conditions: CHO cells; cited from earlier work
# KissR-3 = conditions: cited from earlier work
# Source text: (§1) For clarity, the nomenclature of Pasquier et al ([19], [24]) for KissR will be used in the following paragraphs. In teleost models with two receptors, various studies have shown differential affinities of Kiss peptides toward homologous receptors.
# KissR-2 = conditions: cited from earlier work
# Source text: as §1
# FSH peptide secretion = conditions: striped bass; cited from earlier work
# Source text: (§2) This paradoxical inhibitory effect contrasts with the general action of kisspeptin as an activator of puberty and reproduction, mostly at the brain level ([70]), but also directly on the pituitary [for reviews see Ref. ([71], [72])]. […] In contrast, in other studied teleosts, the action of kisspeptin is generally ...
# LH release = conditions: cited from earlier work
# Source text: as §2
# plasma LH levels = conditions: striped bass, im, cited from earlier work
# Source text: as §2
# FSH gene transcription = conditions: striped bass; cited from earlier work
# Source text: as §2
# pituitary gnrh-r mRNAs = conditions: female striped bass at dummy run phase, chronic administration in vivo; cited from earlier work
# Source text: This receptor is the one increased during experimental maturation in both female and male eels ([25]). To the best of our knowledge, only a single other study investigated the effect of kisspeptin on GnRH receptor in teleost. In female striped bass at dummy run phase (ovarian development is initiated but not completed), chronic administration in vivo of both Kp1(15) and Kp2(12) induces a decrease ...
# [2] = tested on: fshβ expression by eel pituitary cells; conditions: eel pituitary cells in primary culture; cited from earlier work
# [3] = tested on: lhβ expression by eel pituitary cells; conditions: eel pituitary cells in primary culture; cited from earlier work
# Source text: In the eel, three Kiss receptor genes have been characterized, i.e., KissR-1, KissR-2, and KissR-3 ([19], [22]–[24]). Their expressions mainly occur in the brain, pituitary, and gonads ([19]).
# human KissR-1 [4] = tested on: human KissR-1; set-up: method as in PMID 19164475; conditions: CV-1 cells; cited from earlier work
# rat KissR-1 = molecular target: T1, rat KissR-1 (Rattus norvegicus, UniProt Q924U1); test: [Ca^2+]i response (Fluo-4 AM, FlexStation) in rat KissR-1-transfected CHO-K1 cells; format: cell-based; conditions: rat KissR-1 CHO-K1 cells, peak Fluo-4 fluorescence, 10^−12 to 10^−6 M, 37°C, four-parameter logistic, mean ± SEM from two independent experiments; for Emax: baseline normalized to 100%, 180 s recording
# T1 construct: expressed in transfected cells
# Procedure: CHO-K1 cells were cultured to semiconfluence in 12-well plates using Ham’s F12 medium supplemented with 10% fetal bovine serum and 1% antibiotic–antimycotic solution. Cells were transfected with different quantities of the recombinant plasmid, ranging from 3 to 5 µg, using Lipofectamine 2000 (Invitrogen, Cergy Pontoise, France) as previously described ([30]). Twenty-four hours after transfection, media were replaced by fresh F12 medium containing 1 mg/ml G418 (Geneticin; Life Technologies, Inc.). One week later, surviving cells were detached, diluted, and plated on 96-well plates at 0.7 cells/well. Monoclonal cell lines expressing rat KissR-1 (CHO-K1-rKissR-1) were followed daily by contrast phase microscopy. Seven independent monoclonal stable cell lines were obtained after a 3-week period of selection. By using qPCR, two cell lines were selected based on their expression levels being closest to physiological levels among all cell lines.
# To compare the KissR-1 agonistic activities of eel Kp1(10), Kp2(10), Kp1(15), and Kp2(12), the level of [Ca^2+]i after stimulation of CHO-K1 cells stably expressing KissR-1 by these peptides was monitored by spectrofluorometry as previously described ([30], [31]) with slight modifications. Briefly, after 24 h in culture, cells were incubated for 1 h in a humidified incubator (37°C, 5% CO2) with 2 µM Fluo-4 acetoxymethyl ester (AM) calcium dye (Life Technologies, Saint Aubin, France) in Hank’s Buffer Saline Solution (HBSS; Life Technologies) buffered with 5 mM HEPES and supplemented with 2.5 mM probenecid (Sigma-Aldrich, Saint-Quentin Fallavier, France). Cells were washed twice with HBSS/HEPES/probenecid to remove Fluo-4 AM from the incubation medium and incubated in 150 µl of the same medium at 37°C for 15 min. Fluorescence was recorded using a Flexstation 3 fluorescence plate reader system (Molecular Devices, Saint-Grégoire, France) during 180 s with an excitation wavelength of 480 nm, an emission wavelength of 525 nm, and a cutoff filter of 515 nm. After 15 s recording in basal conditions, 50 µl of graded concentration (10^−12 to 10^−6 M) of different peptides (four-fold final concentration) was added to the incubation medium with the built-in eight-channel pipettor at a rate of 62 µl/s to assess their agonistic activity. After subtraction of mean fluorescence background from control wells without Fluo-4 AM, baseline was normalized to 100%, and fluorescence peak values were determined for each concentration of peptide. Potency (EC50) and efficacy (Emax) (Table 3) were determined with the Prism 6.0 software (GraphPad Software In., La Jolla, CA, USA) using a four-parameter logistic equation to fit peak fluorescence data.
# lh expression = conditions: cited from earlier work
# Source text: as §2
# [5] = tested on: LH release by pituitary cells; conditions: cited from earlier work
# Source text: as §2
# human KissR-1 [6] = tested on: human KissR-1; set-up: method as in PMID 18509165; conditions: COS-7 cells; cited from earlier work
# FSH release = conditions: sea bass; cited from earlier work
# Source text: as §2
# [7] = tested on: expression of LH by pituitary cells; conditions: goldfish pituitary cells, mixed sexes at late stages of sexual regression; cited from earlier work
# Source text: as §2
# [8] = striped bass, COS-7 cells, Kp1(15) versus Kp2(12)
# [9] = pituitary cells from sexually mature female goldfish
# [10] = zebrafish, COS-7, CHO-K1, and HEK293 cells
# [11] = pituitary cells from mature male sea bass
# T1 sequence (Q924U1 whole entry): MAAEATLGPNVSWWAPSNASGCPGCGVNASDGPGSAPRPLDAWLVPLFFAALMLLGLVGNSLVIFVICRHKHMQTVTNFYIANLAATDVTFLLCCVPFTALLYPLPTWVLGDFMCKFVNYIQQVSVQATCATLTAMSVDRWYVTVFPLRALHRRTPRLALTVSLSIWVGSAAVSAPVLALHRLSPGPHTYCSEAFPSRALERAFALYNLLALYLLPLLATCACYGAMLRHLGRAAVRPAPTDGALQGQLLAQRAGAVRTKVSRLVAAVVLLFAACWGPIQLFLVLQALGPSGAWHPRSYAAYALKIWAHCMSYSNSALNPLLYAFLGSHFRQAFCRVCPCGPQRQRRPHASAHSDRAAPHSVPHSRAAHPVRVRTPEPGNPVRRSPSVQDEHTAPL
substance,measurement,setting,value
"YNLNSFGLRY [sea bass Kp1(10), sea bass Kiss peptide]",activation of human KissR-1,human KissR-1 [1],can efficiently activate human KissR-1
"SKFNFNPFGLRF [striped bass Kp2(12), striped bass Kiss peptide]",activation of KissR-3,KissR-3; [8],activate KissR-3 with the same potency
same,activation of KissR-2,"KissR-2; striped bass, COS-7 cells, Kp2(12) versus Kp1(15)",more efficiently activated
same,effect on FSH peptide secretion,FSH peptide secretion,stimulate FSH
same,effect on LH release,"LH release; striped bass, in vitro",stimulated LH release
same,effect on plasma LH levels,plasma LH levels; gonadal recrudescence,could increase LH levels at gonadal recrudescence
same,effect on plasma LH levels,plasma LH levels; overall,induces plasma LH levels in a stage-dependent manner
same,effect on FSH gene transcription,FSH gene transcription,stimulate FSH
same,effect on pituitary gnrh-r mRNAs,pituitary gnrh-r mRNAs,induces a decrease of pituitary gnrh-r mRNAs
"QNVAYYNLNSFGLRY [zebrafish Kp1(15), heterologous kisspeptin]",preference for KissR-2,"KissR-2; zebrafish, CV-1 cells",preference for KissR-2
same,"effect on fshβ expression, heterologous kisspeptins",[2],no effect on fshβ
same,"effect on lhβ expression, heterologous kisspeptins",[3],can inhibit lhβ expression; also recorded: specific in vitro inhibitory effect
same,activation of human KissR-1,human KissR-1 [4],highly efficient
YNWNSFGLRY-NH2 [Eel Kp1(10)],Emax,rat KissR-1,236 ± 8.4%
same,EC50,rat KissR-1,8.5 ± 4.5 nM
ENFSSYNWNSFGLRY-NH2 [Eel Kp1(15)],Emax,rat KissR-1,277 ± 5.3%
same,EC50,rat KissR-1,11.8 ± 2 nM
SKFNRNPFGLRF-NH2 [Eel Kp2(12)],Emax,rat KissR-1,256 ± 6.7%
same,EC50,rat KissR-1,135 ± 18.9 nM
"QDVSSYNLNSFGLRY [striped bass Kp1(15), striped bass Kiss peptide]",activation of KissR-3,KissR-3; [8],activate KissR-3 with the same potency
same,effect on lh expression,"lh expression; striped bass, in vitro",inhibitory effect on lh expression
same,effect on FSH peptide secretion,FSH peptide secretion,stimulate FSH
same,effect on plasma LH levels,plasma LH levels; gonadal recrudescence,could increase LH levels at gonadal recrudescence
same,effect on plasma LH levels,plasma LH levels; overall,induces plasma LH levels in a stage-dependent manner
same,effect on plasma LH levels,plasma LH levels; pubertal stage,no effect on LH at pubertal stage
same,effect on FSH gene transcription,FSH gene transcription,stimulate FSH
same,effect on pituitary gnrh-r mRNAs,pituitary gnrh-r mRNAs,induces a decrease of pituitary gnrh-r mRNAs
FNRNPFGLRF-NH2 [Eel Kp2(10)],Emax,rat KissR-1,260 ± 9.5%
same,EC50,rat KissR-1,56.6 ± 27.7 nM
"FNYNPFGLRF [goldfish Kp2(10), homologous goldfish Kp2(10)]",effect on LH release,[5]; [9],inactive on LH release
"human Kp1(14): heterologous kisspeptin (DLPNYNWNSFGLRF; ends and bridges not checked; UniProt Q15726 108-121, looked up)","effect on fshβ expression, heterologous kisspeptins",[2],no effect on fshβ
same,"effect on lhβ expression, heterologous kisspeptins",[3],can inhibit lhβ expression; also recorded: specific in vitro inhibitory effect
"SKFNYNPFGLRF [zebrafish Kp2(12), zebrafish Kiss peptide]",potency for activating KissR-3,"KissR-3; zebrafish, CV-1 cells",higher potency for activating KissR-3
same,activation of human KissR-1,human KissR-1 [4],highly efficient
"YNLNSFGLRY [zebrafish Kp1(10), heterologous kisspeptin]",activation of KissR-3,KissR-3; [10],preferentially activated by Kp1(10)
same,activation of KissR-2,KissR-2; [10],activated by both Kp1(10) and Kp2(10)
same,"effect on fshβ expression, heterologous kisspeptins",[2],no effect on fshβ
same,"effect on lhβ expression, heterologous kisspeptins",[3],can inhibit lhβ expression; also recorded: specific in vitro inhibitory effect
same,activation of human KissR-1,human KissR-1 [6],highly efficient
"QDVSSYNLNSFGLRY [sea bass Kp1(15), sea bass Kiss peptide]",activation of human KissR-1,human KissR-1 [1],can efficiently activate human KissR-1
same,preference for KissR-2,"KissR-2; sea bass, CHO cells",preference for KissR-2
same,effect on lh expression,lh expression; [11],no effect
same,effect on LH release,LH release; [11],no effect
"FNYNPFGLRF [zebrafish Kp2(10), heterologous kisspeptin]",activation of KissR-2,KissR-2; [10],activated by both Kp1(10) and Kp2(10)
same,"effect on fshβ expression, heterologous kisspeptins",[2],no effect on fshβ
same,"effect on lhβ expression, heterologous kisspeptins",[3],can inhibit lhβ expression; also recorded: specific in vitro inhibitory effect
same,activation of human KissR-1,human KissR-1 [4],highly efficient
"SKFNFNPFGLRF [sea bass Kp2(12), sea bass Kiss peptide]",activation of human KissR-1,human KissR-1 [1],can efficiently activate human KissR-1
same,potency for activating KissR-3,"KissR-3; sea bass, CHO cells",higher potency for activating KissR-3
same,effect on lh expression,lh expression; [11],induces both lh expression and LH release
same,effect on LH release,LH release; [11],induces both lh expression and LH release
same,in vitro FSH release,FSH release,can induce in vitro FSH release
"HQDMSSYNFNSFGLRY [chub mackerel Kp1(16), chub mackerel predicted mature peptide]",activity on KissR-3,"KissR-3; chub mackerel, Kp1(16) versus Kp1(15)",more active than the shorter Kp1(15)
"YNLNSFGLRY [goldfish Kp1(10), homologous goldfish Kp1(10)]",effect on LH release,"[5]; goldfish pituitary cells, mixed sexes at late stages of sexual regression",increases the release and expression of LH
same,effect on LH release,[5]; [9],inactive on LH release
same,effect on LH expression,[7],increases the release and expression of LH
